Consider 1 molecule from PMC3726613, “Bacterial Cyclic AMP-Phosphodiesterase Activity Coordinates Biofilm Formation” (PLoS ONE, 2013).

For this test, the target named is T1, CpdS (SMA3506), CpdS-His8 (Serratia ureilytica, UniProt A0A9X9G1H8).
T1 construct: gene cpdA
The experiment in a line: bis-pNPP hydrolysis assay. The format is biochemical. The settings on record: read-out: 50% reduction in the activity.

pIC50: −log10 of the molar value.

T1 sequence (A0A9X9G1H8 entry or part of it): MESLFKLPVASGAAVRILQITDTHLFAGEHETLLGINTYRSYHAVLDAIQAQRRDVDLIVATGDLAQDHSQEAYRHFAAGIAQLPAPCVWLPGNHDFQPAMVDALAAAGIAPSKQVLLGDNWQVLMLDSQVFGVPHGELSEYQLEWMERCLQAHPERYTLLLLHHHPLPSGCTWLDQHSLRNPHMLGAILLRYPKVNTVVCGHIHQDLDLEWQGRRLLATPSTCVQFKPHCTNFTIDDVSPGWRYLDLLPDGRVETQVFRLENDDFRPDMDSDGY

`CC(C)Cn1c(=O)n(C)c(=O)c2[nH]cnc21` [IBMX]: the pIC50 is 2.32.
